Experimental data reported in US20030064967A1 (priority 2001, published 2003).
Several values for one entry are separate records, joined by “and”; a condition that tells them apart may be missing. Equal values may be shown once.

Columns and labels:
[1] = tested on: hypercholesterolemic hamsters; format: in vivo
Protocol: The following assay was conducted to HDL elevation in hamsters. Male Golden Syrian hamsters weighing 110-120 g were obtained from Charles River Laboratories (Wilmington, Mass.). Hamsters were housed individually with wood chip bedding and soft nesting material with lights on a 6 A.M. and off at 6 p.m. Upon arrival the hamsters were acclimated for three days on standard rodent chow and water (Purina rodent chow 5001) ad libitum. Prior to dosing, the hamsters were made hypercholesterolemic by feeding them a powdered diet supplemented with 0.5% cholesterol and 10% coconut oil (Harlan Teklad diet #97235) for one week. Water was added to the powdered chow to form a paste and the chow paste rolled into balls with each animal receiving 20 g of chow paste per day in stainless steel bowls. Chow intake was recorded daily. Body weights were recorded after one week and at the end of the end of the study. Hamsters were distributed into treatment groups after the one-week pretreatment period such that each group had similar average body weights.
Compounds were added to a high cholesterol chow paste and administered as an admixture at the same time each morning for two weeks. At the end of the treatment period the hamsters were fasted in the late afternoon on the day prior to blood collection. Fasting was achieved by transferring the hamsters to clean cages and removing chow stored in cheek pouches. Hamsters were anesthetized with ketamine/rompun solution. When unresponsive to toe pinch and still respiring, blood was collected via cardiac puncture from which plasma was separated and frozen at −80° C.
Lipoproteins were isolated from whole plasma by Fast Phase Liquid Chromatography (FPLC). Cholesterol and triglyceride concentrations in the different lipoprotein fractions were determined by enzymatic methods using a CX-5 chemical analyzer and standard Beckman reagents.
A Dunnetts test was used to compare the experimental and control groups. P<0.05: was considered significant.

[2] = tested on: human apo A-1 transgenic mice; test: HDL cholesterol and human apoAI levels in human apo-A1 transgenic mice (InVivo II); format: in vivo
Protocol: The following assay was conducted to evaluate the effect of Compound A on HDL cholesterol levels in Human apo-A1 transgenic mice. Six-eight week old male human apo A-1 transgenic mice (catolog number JR 1927) were obtained from Jackson Labs. Upon arrival the mice were acclimated for three days on standard rodent diet and water ad libitum. Mice were then given a diet supplemented with 1.25% cholesterol, 7.5% cocoa butter and 0.5% sodium cholate for two weeks. Compound A was administered to the animals by gavage in methylcellulose at a dose of 150 mg/kg/d for two weeks concomitant with the high fat diet. At the end of the treatment period the mice were fasted overnight and then euthanized by CO2 inhalation. Blood was collected by cardiac puncture. Plasma was fractionated by fast phase liquid chromatography and cholesterol in the different lipoprotein fractions determined by an enzymatic assay. An ELISA was completed shoing an increase of h-apoAI of 65%.

HepG2 cells [3] = test: Cell culture assay and ELISA for apoAI HDL increase in HepG2 cells; format: cell-based, human
Protocol: A cell culture assay and ELISA was conducted to measure apoAi HDL increase in HepG2 cells were obtained from the American Type Culture Collection (Rockville, Md.). Fetal bovine serum (FBS) was purchased from Gibco Laboratories. Cells were cultured in minimum essential medium (MEM) containing 10% FBS, and 100 μg/mL of streptomycin, 100 unit/mL of penicillin, and 4 mM of glutamine (Gibco/BRL). Cells were grown for 2 days till they are 80% confluent in 6-well, or 12-well plates before studies. In all cases medium was changed every other day. To measure apoAI, 96-well microtiter plates were coated with a 1:1000 diluted mixture of three monoclonal antibodies against human apoAI (A05, A17, and A44) for 2 h and incubated in succession with HDL3 (0 to 15 ng/well), sheep polyclonal anti-apoAI serum (Boehringer Mannheim), alkaline phosphatase-labeled rabbit anti-sheep (Cappel), and p-nitrophenyl phosphate (1 mg/mL in 10 mmol/L ethanolamine, 0.5 mmol/L MgCl2, pH 9.5), for 2, 1 and 1 h respectively at 37° C. The plates were washed three times between different incubations. The absorbance at 405 nm was determined by using a Bio-Rad model 550 microplate reader (Bio-Rad).

HepG2 cells [4] = test: Uptake of 3[H]cholesteryl hexadecyl ether-labeled HDL in HepG2 cells; format: cell-based; conditions: for % 3[H]-CE uptake: 12.5 μM compound, 20-50 μg/mL 3[H]-CE HDL, 3.5 h, 37° C.; for clearance / selective uptake of cholesteryl ester: HepG2 cells
Protocol: An in vitro assay was conducted to measure the uptake of ^3[H]cholesteryl Hexadecyl Ether-labeled HDL in HepG2 cells. ^3[H]cholesteryl Hexadecyl Ether-labeled HDL was prepared as described by Rodrigueza et al. (Rodrigueza W. V. et al. (1999) J. Biol. Chem. 274:20344-20350). 40 μCi of ^3[H]hexadecyl ether (40-60 Ci/mmol, NEN life Sciences Products) were incubated with 5 mg of HDL3 and 240 mg of heat-inactivated lipoprotein-deficient plasma, 0.01% aprotinin in a polypropylene tube sealed with nitrogen gas for 40 h at 37° C. according to the method of Terpstra et al . ^3[H]-CE enriched HDL was re-isolated by flotation ultracentrifugation and dialyzed against phosphate-buffered saline (PBS). To perform CE uptake studies, HepG2 cells, seeded in 6 or 12 well plates were grown for 2 days till 80% confluent and, then treated with compounds in 1% RSA-DMEM medium for 24 h. The next day, cells were treated with 12.5 μM compounds and 20-50 μg/mL of ^3[H]-CE HDL for 3.5 h at 37° C. After incubation, cells were washed 4 times with PBS/BSA and 2 times with PBS, followed by addition of 0.1 N NAOH. Cells were collected, and radioactivity was measured in counts per minute and expressed as percent of ^3[H]-CE delivered to cells.

HepG2 cells [5] = test: Internalization and degradation of 125I-HDL3 by HepG2 cells; format: cell-based
Protocol: In another aspect of the invention, compounds that increase the levels of plasma HDL holoproteins can be selected using the following process. First, the compound is added to a hepatic model, preferably hepatic cells, more preferably HepG2 cells. Labeled apoAI-HDL, preferably a radioactive isotope label, more preferably ^125I, in the presence or absence of compounds is then added to the cells. The […] labeled apoAI-HDL in the conditioned medium represents degraded labeled apoAI-HDL. After washing and detaching, cells are centrifuged. Labeled apoAI-HDL in the cellular fraction represents internalized HDL holoprotein; whereas, label in the supernatant represents cell surface bound apoAI-HDL that has been dissociated. Increased amounts of labeled HDL in cells treated with compounds versus cells not treated with compounds indicates increased degradation, internalization, or binding to the cell surface. Compounds are selected which […] the amount of apoAI-HDL label in the cellular fraction of the cells contacted with a test compound compared to the amount of label in the cellular fraction of the cells not contacted with the test compound.
In another aspect of the invention, compounds that increase the levels of plasma HDLc can be selected by contacting a hepatic model, preferably hepatic cells, more preferably HepG2 cells with test compounds. Labeled apoAI-HDL, preferably a radioactive isotope label, more preferably ^125I, in the presence or absence of compounds is then added to the cells. Label in the conditioned medium represents degraded labeled-HDL. After washing and detaching, cells are centrifuged. Label in the cellular fraction represents internalized HDL holoprotein; whereas, label in the supernatant represents cell surface bound apoAI-HDL that has been dissociated. Increased amounts of label in cells treated with compounds versus cells not treated with compounds indicates increased degradation, internalization, or binding of apoAI-HDL to the cell surface. […]

apoAI = test: Synthesis of apoAI
[6] = format: in vivo; conditions: one study; 150 mg/kg/d by gavage in methylcellulose

## CC(C)(Sc1cc(C(C)(C)C)c(O)c(C(C)(C)C)c1)Sc1cc(C(C)(C)C)c(OC(=O)CCCC(=O)O)c(C(C)(C)C)c1 [Compound A, Pentanedioic Acid, mono[4-[[1-[[3,5-bis(1,1-dimethylethyl)-4-hydroxyphenyl]thio]-1-methylethyl]thio]-2,6-bis(1,1-dimethylethyl)phenyl]ester]
[1]; 150 mg/kg/d, two weeks
  HDLc elevation, range of three experiments: 5-44%
  body weight: all animals gained weight
  tolerability: well tolerated
[1]; average of three experiments, 150 mg/kg/d, two weeks, in chow
  HDLc elevation compared to untreated controls: 22%
[1]; average, n=3, 150 mg/kg/d, two weeks
  LDLc reduction compared to controls: 29%
[1]; hypercholesterolemic hamsters
  increase in HDL cholesterol levels (FIG. 1): 24%
[1]; n=3, 150 mg/kg/d, two weeks
  VLDL cholesterol reduction compared to controls: 42%
  VLDL cholesterol reduction, range: 22-53%
  triglycerides reduction compared to controls: 24%
  triglycerides reduction, range: 7-33%
[2]; 150 mg/kg/d by gavage, two weeks, high fat diet
  increase of human apoAI (ELISA): 64% and 65%
[2]; hypercholesterolemic human apo-AI transgenic mice
  increase in HDL cholesterol (FIG. 7): 71%
HepG2 cells [3]
  % increase apoAI HDL: 33%
HepG2 cells [4]
  % 3[H]-CE uptake: 42%
  clearance / selective uptake of cholesteryl ester: enhance the clearance of cholesteryl ester
HepG2 cells [5]
  degradation of 125I-HDL3: decreases degradation
  internalization of 125I-HDL3 / HDL holoprotein uptake: decreases internalization

## CC(C)(Sc1cc(C(C)(C)C)c(O)c(C(C)(C)C)c1)Sc1cc(C(C)(C)C)c(O)c(C(C)(C)C)c1 [Probucol, 4,4′-(isopropylidenedithio) bis(2,6-di-tert-butylphenol), reference compound]
HepG2 cells [3]
  % increase apoAI HDL: −21%
HepG2 cells [4]
  % 3[H]-CE uptake: 13%
HepG2 cells [5]
  internalization of 125I-HDL3 / HDL holoprotein uptake: reduced HDL holoprotein uptake
apoAI
  effect on synthesis of apoAI: reduced the synthesis of apoAI

## CC(C)(Sc1cc(C(C)(C)C)c(O)c(C(C)(C)C)c1)Sc1cc(C(C)(C)C)c(OC(=O)COCC(=O)O)c(C(C)(C)C)c1 [Compound C, Carboxymethoxyacetic Acid, mono[4-[1-[[3,5-bis(1,1-dimethylethyl)-4-hydroxyphenyl]thio]-1-methyl-ethyl]-thio-2,6-bis(1,1-dimethylethyl)phenyl]ester]
HepG2 cells [3]
  % increase apoAI HDL: 47%

## COC(=O)CCCC(=O)Oc1c(C(C)(C)C)cc(SC(C)(C)Sc2cc(C(C)(C)C)c(O)c(C(C)(C)C)c2)cc1C(C)(C)C [Compound D, Pentanedioic Acid, [4-[1-[[3,5-bis(1,1-dimethylethyl)-4-hydroxyphenyl]thio]-1-methylethyl]-thio-2,6-bis(1,1-dimethylethyl)phenyl], Methyl Ester]
HepG2 cells [3]
  % increase apoAI HDL: 27%

## CC(C)(Sc1cc(C(C)(C)C)c(O)c(C(C)(C)C)c1)Sc1cc(C(C)(C)C)c(OC(=O)CCCOS(=O)(=O)[O-])c(C(C)(C)C)c1.[Na+] [Compound B, 4-[4-[1-[[3,5-bis(1,1-dimethylethyl)-4-hydroxyphenyl]thio]-1-methylethyl]-thio-2,6-bis-(1,1-dimethyl-ethyl)phenoxy]-4-oxo-1-butyl Sodium Sulfate]
HepG2 cells [3]
  % increase apoAI HDL: 26%
HepG2 cells [4]
  % 3[H]-CE uptake: 44%
  clearance / selective uptake of cholesteryl ester: enhance the clearance of cholesteryl ester
[6]
  mortality: all of the mice died
